According to PMC12526022, “Synthesis of First Copper Metal Complex of C=C Extended Curcuminoid Analogue: Structure, β-Cyclodextrin Association, and Biological Properties” (Molecules, 2025):

Experiments:
yeast α-glucosidase = biological target: T1, yeast α-glucosidase (Saccharomyces cerevisiae, UniProt P53341); assay: Inhibition of yeast α-glucosidase (p-nitrophenyl-α-D-glucopyranoside substrate, OD 405 nm); format: biochemical; settings: for D.O. 405 nm / Inhibition (%): mean ± SEM; for IC50: mean ± standard error of the mean, n = 3-5, read-out: Yeast α-glucosidase inhibition, half-maximal inhibitory concentration (IC50)
T1 construct: purchased Sigma Aldrich G5003-100UN
Procedure: The inhibition of α-glucosidase was evaluated using a previously adapted method. Briefly, a solution (25 µL) of tested samples in DMSO-H2O 1:1 was added to 150 µL of phosphate buffer (PBS, 67 mM, pH 6.8) and incubated at 37 °C for 10 min with 25 µL of reduced glutatione (3 mM in PBS) and 25 µL of α-glucosidase type I solution (0.2 U/mL in PBS, CAS G5003-100UN) (Sigma Aldrich, Toluca, Estado de México, Mexico). Subsequently, 25 µL of the substrate solution (23.2 mM p-nitrophenyl-α-D-glucopyranoside, CAS N1377-1G, in PBS) (Sigma Aldrich, Toluca, Estado de México, Mexico) was added, and the mixture was incubated at 37 °C for 15 min under shaking. The reaction mixture was stopped by the addition of a […] 1M solution (50 µL), followed by agitation for 5 min. […] The percentage of inhibition was calculated according to the following equation:Inhibition (%) = [(Acontrol − Asample)/Acontrol] × 100 where A is the absorbance at 405 nm of the sample and the control.
Table S5. Inhibition of yeast α-glucosidase. Determination of half-maximal inhibitory concentration […]
Values represent the mean of three to five independent experiments ± standard error of the mean.
Data were examined by analysis of variance (ANOVA) followed by Dunnett's test to determine groups with significant differences. Values of p ≤0.05 (*) and p ≤ 0.01 (**) were considered significant differences from the control.

[1] = tested on: PC-3 prostate cancer cells; assay: Sulforhodamine B antiproliferative assay, PC-3; format: cell-based; settings: PC-3, 10 µM, vehicle DMSO, 48 h, NA: no activity
Procedure: (§1) Antiproliferative activity was evaluated by Sulforhodamine B assay against colon cancer (HCT-15), breast cancer (MCF-7), leukaemia ([…]), central nervous system glial (U-251), and prostate cancer (PC-3) cell lines, which the National Cancer Institute supplied. The cell lines were cultured in RPMI-1640 medium supplemented with 10% fetal bovine serum, 2 mM L-glutamine, […] penicillin G, 100 µg/mL streptomycin sulfate, and 0.25 µg/mL amphotericin B Gibco (Thermo Fisher Scientific, Grand Island, NY, USA). They were incubated at 37 °C in an atmosphere of 5% CO2 and 95% humidity. For the assay, cells were suspended in a 0.1% trypsin-EDTA solution (Gibco). Cell viability was counted using a hematocytometer and diluted with medium to achieve the following densities: 5 × 10^4 cells/mL (SKLU-1, K562) and 7.5 × 10^4 cells/mL (U251, PC-3). […]
(§2) After 24 h, the cells were treated with 100 µL of the compounds to be evaluated, previously dissolved in RPMI-1640 medium and 1% DMSO, and then incubated for 48 h at 37 °C in a 5% CO2 atmosphere. […]
(§3) After 48 h, the adherent cells were fixed by adding 50 µL of a cold 50% (m/vol) […] solution and incubated at 4 °C for 60 min. […] The optical density of the treated samples was determined in a Bio Kinetics microplate reader at a wavelength of 515 nm (Synergy HT, BioTek, Winooski, VT, USA). […]

[2] = tested on: HCT-15 colon cancer cells; assay: Sulforhodamine B antiproliferative assay, HCT-15; format: cell-based; settings: HCT-15, 10 µM, vehicle DMSO, 48 h, NA: no activity
Procedure: as §1, §2, §3

[3] = tested on: MCF-7 breast cancer cells; assay: Sulforhodamine B antiproliferative assay, MCF-7; format: cell-based; settings: MCF-7, 10 µM, vehicle DMSO, 48 h, NA: no activity
Procedure: as §1, §2, §3

SKLU-1 lung cancer cells = assay: Sulforhodamine B antiproliferative assay, SKLU-1; format: cell-based; settings: SKLU-1, 10 µM, vehicle DMSO, 48 h, NA: no activity
Procedure: as §1, §2, §3

[4] = tested on: COS-7 monkey kidney fibroblast; assay: Sulforhodamine B assay, COS7 healthy cells; format: cell-based; settings: 10 µM, vehicle DMSO, 48 h
[5] = Solubility in polar solvents (observation); format: physicochemical
α-glucosidase = biological target: α-glucosidase; parameters: method as in PMID 16387392, doi:10.1016/j.kjs.2024.100312; settings: literature values for comparison; read-out: α-glucosidase inhibitory activity IC50; cited from earlier work

T1 sequence (P53341 whole entry): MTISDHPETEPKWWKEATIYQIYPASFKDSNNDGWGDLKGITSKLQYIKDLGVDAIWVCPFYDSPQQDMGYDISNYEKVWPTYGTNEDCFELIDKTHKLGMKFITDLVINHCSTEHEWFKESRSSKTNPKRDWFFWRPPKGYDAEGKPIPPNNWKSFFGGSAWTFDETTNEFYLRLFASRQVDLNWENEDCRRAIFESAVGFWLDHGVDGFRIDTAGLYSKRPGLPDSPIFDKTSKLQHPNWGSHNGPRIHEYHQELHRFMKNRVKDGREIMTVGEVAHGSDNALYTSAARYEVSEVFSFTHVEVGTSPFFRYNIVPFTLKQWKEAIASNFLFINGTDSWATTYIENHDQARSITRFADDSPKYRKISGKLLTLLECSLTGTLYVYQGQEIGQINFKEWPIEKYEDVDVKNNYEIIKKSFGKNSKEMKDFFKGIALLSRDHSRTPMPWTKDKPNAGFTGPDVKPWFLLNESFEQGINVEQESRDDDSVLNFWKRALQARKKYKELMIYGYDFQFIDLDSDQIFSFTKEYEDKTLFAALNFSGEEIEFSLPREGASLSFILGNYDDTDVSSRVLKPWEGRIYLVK

Row | SMILES | inhibition at 10 µM (yeast α-glucosidase) [%] | inhibition at 100 µM (yeast α-glucosidase) [%] | D.O. 405 nm (yeast α-glucosidase; 1 µM) | D.O. 405 nm (yeast α-glucosidase; 10 µM) | D.O. 405 nm (yeast α-glucosidase; 100 µM) | inhibition at 17.78 µM (yeast α-glucosidase) [%] | inhibition at 31.62 µM (yeast α-glucosidase) [%] | inhibition at 56.23 µM (yeast α-glucosidase) [%] | D.O. 405 nm (yeast α-glucosidase; 17.78 µM) | D.O. 405 nm (yeast α-glucosidase; 31.62 µM) | D.O. 405 nm (yeast α-glucosidase; 56.23 µM) | IC50 (yeast α-glucosidase) [µM] | Cellular growth inhibition (%) [4] [%] | Solubility in polar solvents (in words) [5] | IC50 (α-glucosidase) [µM] | also measured
1 | OC[C@H]1O[C@@H]2O[C@H]3[C@H](O)[C@@H](O)[C@@H](O[C@H]4[C@H](O)[C@@H](O)[C@@H](O[C@H]5[C@H](O)[C@@H](O)[C@@H](O[C@H]6[C@H](O)[C@@H](O)[C@@H](O[C@H]7[C@H](O)[C@@H](O)[C@@H](O[C@H]8[C@H](O)[C@@H](O)[C@@H](O[C@H]1[C@H](O)[C@H]2O)O[C@@H]8CO)O[C@@H]7CO)O[C@@H]6CO)O[C@@H]5CO)O[C@@H]4CO)O[C@@H]3CO [BCD, β-cyclodextrin] | 1.11 ± 4.12 | 2.31 ± 3.94 | 1.275±0.028 | 1.261±0.022 | 1.246±0.019 |  |  |  |  |  |  |  |  |  |  | inhibition at 1 µM (yeast α-glucosidase): 0.2 ± 3.02%
2 | O=C(/C=C(O)/C=C/C=C/c1ccccc1)/C=C/C=C/c1ccccc1 [Compound 2] | 7.61 ± 2.8 | 86.9 ± 7.53 |  | 1.205±0.051 | 0.174±0.105 | 16.9 ± 3.75 | 31.6 ± 6.86 | 66.3 ± 10.2 | 1.084±0.067 | 0.894±0.105 | 0.446±0.147 | 45.6 | 7.35 | poor solubility |  | inhibition at 10 µM ([1]; read-out: Cellular growth inhibition (%)): 11.8%; inhibition at 10 µM ([2]; Homo sapiens, read-out: Cellular growth inhibition (%)): 15.9%; inhibition at 10 µM ([3]; Homo sapiens, MCF7, read-out: Cellular growth inhibition (%)): 11.5%; inhibition at 10 µM (SKLU-1 lung cancer cells; Homo sapiens, SK-LU-1, read-out: Cellular growth inhibition (%)): 7.45%
3 | O=C(C=CC=Cc1ccccc1)C=C([O-])C=CC=Cc1ccccc1.O=C(C=CC=Cc1ccccc1)C=C([O-])C=CC=Cc1ccccc1.[Cu+2] [Compound 3] |  |  | 1.314±0.041 | 1.226±0.025 | 1.071±0.044 |  |  |  |  |  |  | > 100 | 15.49 | poor solubility |  | α-glucosidase inhibitory activity (in words) (yeast α-glucosidase): no inhibition activity at high concentrations; Inhibition (%) (yeast α-glucosidase; 1 µM): -2.68±1.55%; Inhibition (%) (yeast α-glucosidase; 10 µM): 4.11±1.43%; Inhibition (%) (yeast α-glucosidase; 100 µM): 16.19 ± 3.18%; Cellular growth inhibition (%) [1]: 1.95%; Cellular growth inhibition (%) [2]: 12.04%; Cellular growth inhibition (%) [3]: 12.35%; Cellular growth inhibition (%) (SKLU-1 lung cancer cells): 0.58%
4 | O=c1c(O)c(-c2ccc(O)c(O)c2)oc2cc(O)cc(O)c12 [Quercetin, quercetin, reference compound] | 16.2 ± 2.95 |  |  | 1.142±0.064 |  | 36.9 ± 1.16 | 59.1 ± 0.88 | 72.2 ± 1.55 | 0.861±0.044 | 0.556±0.019 | 0.376±0.016 |  |  |  |  | inhibition at 5.62 µM (yeast α-glucosidase): 6.31 ± 2.5%; D.O. 405 nm (yeast α-glucosidase; 5.62 µM): 1.276±0.063
5 | O=C(/C=C/c1ccc(O)cc1)CC(=O)/C=C/c1ccc(O)cc1 [bisdemetoxicurcumin] |  |  |  |  |  |  |  |  |  |  |  |  |  |  | 90.6 | 
6 | COc1cc(/C=C/C(O)=C/C(=O)/C=C/c2ccc(O)cc2)ccc1O [demetoxicurcumin] |  |  |  |  |  |  |  |  |  |  |  |  |  |  | 82.4 | 
